One experiment has as its system A375 cells. Briefly: Inhibition of cancer cell growth, MTT or MTS assay, A375. The class given is cell-based. The conditions noted are these: Homo sapiens, A-375, 72 h incubation. On the procedure:
(§1) Inhibition of cell growth by compounds was measured using MTT or MTS assay. Tumor cell lines were purchased from ATCC (American Type Culture Collection, Manassas, Va.). All cell lines were maintained in RPMI 1640 (Hyclone) supplemented with 10% fetal bovine serum (FBS, Hyclone), glutamine (2 mM, Hyclone), and antibiotics (penicillin 100 U/mL and streptomycin 50 μg/mL) at 37° C. in a humidified atmosphere of 5% CO2 in air. Taxol (as a positive control, Sigma) and compounds were dissolved in DMSO (Sigma), and the final concentration of DMSO in the medium was 1%. Tumor cells were plated in 96-well plates at densities of about 2000 (A375) or 4000 (A549 and Colo205) cells/well of a 96-well plate and allowed to adhere/grow for 24 h. They were then treated with various concentrations of drug and incubated for 72 h. For MTT method, medium was then removed by inverting and tapping the plates. 100 μL of MTT (0.5 mg/ml) was added to each well followed by an incubated at 37° C. for 4 h. MTT was then removed and 200 μL of DMSO was added to each well, and the ODs at 570 nm were measured after a 5 second shaking cycle in a 96-well spectrophotometer. For MTS method, 20 μL MTS (CellTiter 96 Aqueous One Solution, Promega) was added to each well followed by an incubated at 37° C. for 2-4 h, solutions were then directly put in a 96-well spectrophotometer, and the ODs at 490 nm were measured.
(§2) All concentrations of compounds were tested in triplicate and controls were averaged over 4 wells. IC50 was calculated by plotting the concentration of compound vs the percentage of inhibition in treated wells using GraphPad Prism 5. […] The scale utilized in Tables 7-9 is as follows: +++ less than 1000 nM; ++ between 1000 nM and 5000 nM; and + greater than 5000 nM. The scale utilized in […]
(In general: Formazan colour is commonly taken as a measure of viable cells.)

The target of the next experiment is T1, KDR (VEGFR2) (Homo sapiens, UniProt P35968).
T1 construct: purchased Invitrogen
The experiment can be described thus: Z'-LYTE kinase inhibition assay against KDR. The settings on record: % inhibition at 1 μM, Z'-LYTE method. Format: biochemical. On the procedure:
Inhibitory activities of compounds against KDR (VEGFR2) were also measured by Invitrogen using Z′-LYTE® Method as described above with the following modification. The 2×KDR (VEGFR2)/Tyr 01 mixture is prepared in 50 mM HEPES pH 7.5, 0.01% BRIJ-35, 10 mM MgCl2, 1 mM EGTA. The final 10 μL Kinase Reaction consists of 0.5-11.7 ng KDR (VEGFR2) and 2 μM Tyr 01 in 50 mM HEPES pH 7.5, 0.01% BRIJ-35, 10 mM MgCl2, 1 mM EGTA. After the 1 hour Kinase Reaction incubation, 5 μL of a 1:256 dilution of Development Reagent B is added.
The scale utilized in Table 6 is as follows: +++ less than 100 nM; and ++ greater than 100 nM

Another experiment addresses T2, BRAF V600E (Homo sapiens, UniProt P15056, V600E).
T2 construct: purchased Invitrogen
The experiment can be described thus: Z'-LYTE kinase inhibition assay against BRAF V600E. Format: biochemical. The conditions noted are these: % inhibition at 1 μM, Z'-LYTE method. How it is done: Inhibitory activities Inhibitory activities of compounds against BRAF, and BRAF V600E were measured by Invitrogen using Z′-LYTE® Method as briefly described in the following. 4× Test compounds are dissolved in 1% DMSO. […] ATP solutions are diluted to a 4×ATP working concentration in Kinase Buffer (50 mM HEPES pH 7.5, 0.01% BRIJ-35, 10 mM MgCl2, 1 mM EGTA). Reaction started by 30-second shaking of mixture consisting of 2.5 μL 4× test compound, […] and 2.5 μL 4×ATP Solution on Bar-coded Corning, low volume NBS, black 384-well plate (Corning Cat. #3676). Then the mixture was incubated for 60-minute at room temperature for the kinase reaction, followed by addition of 5 μL of a 1:1024 dilution of development reagent A and 30-second plate shake. The mixture was then incubated for another 60-minute at room temperature for development reaction. Fluorescence was read by plate reader. IC50 was calculated by plotting the concentration of compound vs the percentage of inhibition in treated wells using GraphPad Prism 5.
Table 2 and 3 show % inhibition at 1 μM of several compounds of the invention against BRAF and BRAF V600E, respectively, using Z′-LYTE® method.
The scale utilized in Table 4 is as follows: +++ less than 100 nM; and ++ greater than 100 nM.

Another experiment has as its system A549 cells. The experiment can be described thus: Inhibition of cancer cell growth, MTT or MTS assay, A549. The class given is cell-based. The settings on record: Homo sapiens, 72 h incubation. On the procedure: as §1, §2

T1 sequence (P35968 20-1356): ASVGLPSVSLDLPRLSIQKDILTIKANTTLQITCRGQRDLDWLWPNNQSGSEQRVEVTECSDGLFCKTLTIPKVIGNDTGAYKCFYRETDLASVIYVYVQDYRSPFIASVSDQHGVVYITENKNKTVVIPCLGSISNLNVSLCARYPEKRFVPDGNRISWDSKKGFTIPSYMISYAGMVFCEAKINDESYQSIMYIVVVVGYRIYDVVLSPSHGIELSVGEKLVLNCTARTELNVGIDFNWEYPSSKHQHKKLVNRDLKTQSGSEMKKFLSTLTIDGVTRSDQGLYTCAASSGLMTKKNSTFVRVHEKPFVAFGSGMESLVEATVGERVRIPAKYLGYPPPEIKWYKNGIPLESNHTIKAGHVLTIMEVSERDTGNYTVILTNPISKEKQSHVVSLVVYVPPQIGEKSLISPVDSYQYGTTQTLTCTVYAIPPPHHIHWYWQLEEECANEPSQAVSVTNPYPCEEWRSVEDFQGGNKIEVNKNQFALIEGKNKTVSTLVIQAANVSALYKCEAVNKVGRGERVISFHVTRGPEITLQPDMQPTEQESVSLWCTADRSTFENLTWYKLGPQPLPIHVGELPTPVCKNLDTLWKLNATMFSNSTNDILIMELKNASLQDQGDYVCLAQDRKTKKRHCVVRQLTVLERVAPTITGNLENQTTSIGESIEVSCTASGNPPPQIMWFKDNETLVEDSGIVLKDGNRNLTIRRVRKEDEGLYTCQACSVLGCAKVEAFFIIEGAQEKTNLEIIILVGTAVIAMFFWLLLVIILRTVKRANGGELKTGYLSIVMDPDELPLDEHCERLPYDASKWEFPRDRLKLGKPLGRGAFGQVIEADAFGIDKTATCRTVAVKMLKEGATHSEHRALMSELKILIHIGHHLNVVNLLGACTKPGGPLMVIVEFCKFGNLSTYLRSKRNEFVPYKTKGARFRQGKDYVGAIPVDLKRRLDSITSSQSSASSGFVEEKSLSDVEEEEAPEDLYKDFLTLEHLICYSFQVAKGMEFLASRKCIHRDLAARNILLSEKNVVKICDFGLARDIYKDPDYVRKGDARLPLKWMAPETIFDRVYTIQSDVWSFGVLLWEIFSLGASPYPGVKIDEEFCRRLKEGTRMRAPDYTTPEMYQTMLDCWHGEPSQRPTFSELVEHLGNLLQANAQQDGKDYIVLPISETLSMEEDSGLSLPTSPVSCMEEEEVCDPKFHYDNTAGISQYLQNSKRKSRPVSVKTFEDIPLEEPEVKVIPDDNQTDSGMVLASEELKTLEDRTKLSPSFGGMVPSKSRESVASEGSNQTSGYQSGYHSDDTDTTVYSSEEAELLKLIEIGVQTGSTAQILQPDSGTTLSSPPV
T2 sequence (P15056 whole entry V600E): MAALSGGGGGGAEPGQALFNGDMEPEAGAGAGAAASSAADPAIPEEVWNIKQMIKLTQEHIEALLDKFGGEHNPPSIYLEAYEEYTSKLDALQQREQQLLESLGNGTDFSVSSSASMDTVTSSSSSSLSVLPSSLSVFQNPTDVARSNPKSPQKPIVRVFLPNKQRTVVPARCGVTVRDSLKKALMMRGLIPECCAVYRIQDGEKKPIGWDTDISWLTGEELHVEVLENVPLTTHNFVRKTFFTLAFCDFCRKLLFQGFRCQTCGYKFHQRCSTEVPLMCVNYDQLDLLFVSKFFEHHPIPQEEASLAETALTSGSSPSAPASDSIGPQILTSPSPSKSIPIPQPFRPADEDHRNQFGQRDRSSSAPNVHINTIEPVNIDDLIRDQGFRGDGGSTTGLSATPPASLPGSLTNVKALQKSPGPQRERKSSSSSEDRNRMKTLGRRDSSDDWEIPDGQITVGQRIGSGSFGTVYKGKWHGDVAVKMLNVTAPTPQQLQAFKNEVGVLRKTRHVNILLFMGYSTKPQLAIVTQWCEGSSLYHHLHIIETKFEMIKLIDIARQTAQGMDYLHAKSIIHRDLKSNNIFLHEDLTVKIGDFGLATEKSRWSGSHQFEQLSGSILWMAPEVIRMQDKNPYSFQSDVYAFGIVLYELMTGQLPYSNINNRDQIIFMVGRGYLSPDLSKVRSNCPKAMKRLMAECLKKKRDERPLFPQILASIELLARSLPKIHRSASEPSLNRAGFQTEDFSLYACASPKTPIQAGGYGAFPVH

`O=C(Nc1ccc(C(=O)c2ccc3ncc(N4CCOCC4)nc3c2)c(F)c1)c1cccc(Cl)c1` [Compound C37, 3-chloro-N-(3-fluoro-4-(3-morpholinoquinoxaline-6-carbonyl)phenyl)benzamide]: the 50% inhibitory concentration (IC50) (usually the concentration that gives 50% inhibition) with A375 cells was more than 5 µM.
As for `O=C(Nc1ccc(C(=O)c2ccc3ncc(N4CCOCC4)nc3c2)cc1)Nc1ccc(Cl)c(C(F)(F)F)c1` [Compound C07, 1-(4-chloro-3-(trifluoromethyl)phenyl)-3-(4-(3-morpholinoquinoxaline-6-carbonyl)phenyl)urea], the inhibition (usually the change of the read-out against control, counted positive when it falls) at 1 µM is 70 to 89% on KDR (VEGFR2) and less than 70% at BRAF V600E. Besides, the IC50 with A375 cells and in the experiment with A549 cells was 1 to 5 µM in each case.
Turning to `Cn1ccc(NC(=O)Nc2ccc(C(=O)c3ccc4ncc(N5CCNCC5)nc4c3)c(F)c2)n1` [Compound C31, 1-(3-fluoro-4-(3-(piperazin-1-yl)quinoxaline-6-carbonyl)phenyl)-3-(1-methyl-1H-pyrazol-3-yl)urea], the inhibition at 1 µM on KDR (VEGFR2) was less than 70%; on BRAF V600E, 70 to 89%. In addition, the IC50 was 1 to 5 µM in the experiment on A375 cells and more than 5 µM in the experiment with A549 cells.
As to `O=C(Nc1ccc(C(=O)c2ccc3ncc(N4CCOCC4)nc3c2)cc1)Nc1ccc(C(F)(F)F)cc1` [Compound C08, 1-(4-(3-morpholinoquinoxaline-6-carbonyl)phenyl)-3-(4-(trifluoromethyl)phenyl)urea], the inhibition at 1 µM against KDR (VEGFR2) and on BRAF V600E was less than 70% throughout. The IC50 in the experiment on A375 cells was less than 1 µM; in the experiment on A549 cells, 1 to 5 µM.
With `Cn1cc(NC(=O)Nc2ccc(C(=O)c3ccc4ncc(N5CCNCC5)nc4c3)c(F)c2)cn1` [Compound C32, 1-(3-fluoro-4-(3-(piperazin-1-yl)quinoxaline-6-carbonyl)phenyl)-3-(1-methyl-1H-pyrazol-4-yl)urea], the inhibition at 1 µM was less than 70% at KDR (VEGFR2) and 70 to 89% at BRAF V600E.
As to `O=C(Nc1cccc(C(F)(F)F)c1)Nc1ccc(C(=O)c2ccc3ncc(N4CCOCC4)nc3c2)c(F)c1` [Compound C24, 1-(3-fluoro-4-(3-morpholinoquinoxaline-6-carbonyl)phenyl)-3-(3-(trifluoromethyl)phenyl)urea], the figures for the inhibition at 1 µM at KDR (VEGFR2) and on BRAF V600E were 70 to 89% and less than 70%, respectively. For the same compound, the IC50 with A375 cells and with A549 cells was 1 to 5 µM in each case.
`O=C(Nc1ccc(C(=O)c2ccc3ncc(N4CCNCC4)nc3c2)c(F)c1)c1cccc(C(F)(F)F)c1` [Compound C42, N-(3-fluoro-4-(3-(piperazin-1-yl)quinoxaline-6-carbonyl)phenyl)-3-(trifluoromethyl)benzamide] registered an IC50 in the experiment with A375 cells of 1 to 5 µM.
Turning to `O=C(Nc1ccc(C(=O)c2ccc3ncc(C4CCNCC4)nc3c2)cc1)Nc1cccc(C(F)(F)F)c1` [Compound C27, 1-(4-(3-(piperidin-4-yl)quinoxaline-6-carbonyl)phenyl)-3-(3-(trifluoromethyl)phenyl)urea], the inhibition at 1 µM on KDR (VEGFR2) was less than 70%; at BRAF V600E, 70 to 89%. In addition, the half-maximal inhibitory concentration (IC50) in the experiment with A375 cells and in the experiment on A549 cells was more than 5 µM in each case.
The compound `O=C(Nc1ccc(C(=O)c2ccc3ncc(N4CCNCC4)nc3c2)c(F)c1)c1ccc(Cl)cc1` [Compound C40, 4-chloro-N-(3-fluoro-4-(3-(piperazin-1-yl)quinoxaline-6-carbonyl)phenyl)benzamide] returned an IC50 with A375 cells of 1 to 5 µM.
For the compound `O=C(Nc1ccc(C(=O)c2ccc3ncc(N4CCOCC4)nc3c2)c(F)c1)Nc1ccc(Cl)c(C(F)(F)F)c1` [Compound C25], the inhibition at 1 µM at KDR (VEGFR2) and on BRAF V600E was less than 70% each time. The same compound returned an IC50 with A549 cells of 1 to 5 µM.
Turning to `O=C(Nc1ccc(F)cc1)Nc1ccc(C(=O)c2ccc3ncc(N4CCOCC4)nc3c2)c(F)c1` [Compound C23, 1-(3-fluoro-4-(3-morpholinoquinoxaline-6-carbonyl)phenyl)-3-(4-fluorophenyl)urea], the inhibition at 1 µM against KDR (VEGFR2) was less than 70%; at BRAF V600E, 70 to 89%. Also, the IC50 in the experiment with A549 cells is more than 5 µM.
`O=C(Nc1ccc(C(=O)c2ccc3ncc(N4CCOCC4)nc3c2)c(F)c1)c1cccc(F)c1` [Compound C34, 3-fluoro-N-(3-fluoro-4-(3-morpholinoquinoxaline-6-carbonyl)phenyl)benzamide]: in the experiment with A375 cells, the IC50 was more than 5 µM.
Same read-out and setting: in the case of `O=C(Nc1ccc(C(=O)c2ccc3ncc(N4CCOCC4)nc3c2)c(F)c1)c1cccc(C(F)(F)F)c1` [Compound C38, N-(3-fluoro-4-(3-morpholinoquinoxaline-6-carbonyl)phenyl)-3-(trifluoromethyl)benzamide] it was 1 to 5 µM.
Take `O=C(Nc1cccc(F)c1)Nc1ccc(C(=O)c2ccc3ncc(N4CCOCC4)nc3c2)c(F)c1` [Compound C22, 1-(3-fluoro-4-(3-morpholinoquinoxaline-6-carbonyl)phenyl)-3-(3-fluorophenyl)urea]: the inhibition at 1 µM on KDR (VEGFR2) and against BRAF V600E was less than 70% each time. Moreover, in the experiment on A549 cells, the IC50 was more than 5 µM.
`O=C(Nc1ccc(C(=O)c2ccc3ncc(N4CCNCC4)nc3c2)c(F)c1)c1ccc(Cl)c(C(F)(F)F)c1` [Compound C43, 4-chloro-N-(3-fluoro-4-(3-(piperazin-1-yl)quinoxaline-6-carbonyl)phenyl)-3-(trifluoromethyl)benzamide] had an IC50 in the experiment with A375 cells of less than 1 µM.
Turning to `Cc1cc(NC(=O)Nc2ccc(C(=O)c3ccc4ncc(N5CCNCC5)nc4c3)c(F)c2)no1` [Compound C33, 1-(3-fluoro-4-(3-(piperazin-1-yl)quinoxaline-6-carbonyl)phenyl)-3-(5-methylisoxazol-3-yl)urea], the inhibition at 1 µM against KDR (VEGFR2) was less than 70%; on BRAF V600E it was more than 89%. The IC50 in the experiment on A375 cells was in the range of 1 to 5 µM.
Take `O=C(Nc1ccc(C(=O)c2ccc3ncc(N4CCOCC4)nc3c2)c(F)c1)c1ccc(Cl)c(C(F)(F)F)c1` [Compound C36, 4-chloro-N-(3-fluoro-4-(3-morpholinoquinoxaline-6-carbonyl)phenyl)-3-(trifluoromethyl)benzamide]: the IC50 with A375 cells was more than 5 µM.
Still for that read-out and setting: in the case of `O=C(Nc1ccc(C(=O)c2ccc3ncc(N4CCNCC4)nc3c2)c(F)c1)c1cccc(Cl)c1` [Compound C41, 3-chloro-N-(3-fluoro-4-(3-(piperazin-1-yl)quinoxaline-6-carbonyl)phenyl)benzamide] it was less than 1 µM.
`N#Cc1cnc2ccc(C(=O)c3ccc(NC(=O)Nc4ccc(Cl)c(C(F)(F)F)c4)cc3F)cc2n1` [Compound C30, 1-(4-chloro-3-(trifluoromethyl)phenyl)-3-(4-(3-cyanoquinoxaline-6-carbonyl)-3-fluorophenyl)urea]: the inhibition at 1 µM against KDR (VEGFR2) and against BRAF V600E was less than 70% in each case. Besides, the IC50 with A549 cells was more than 5 µM.
For the compound `O=C(Nc1ccc(C(=O)c2ccc3ncc(N4CCOCC4)nc3c2)c(F)c1)c1ccc(Cl)cc1` [Compound C35, 4-chloro-N-(3-fluoro-4-(3-morpholinoquinoxaline-6-carbonyl)phenyl)benzamide], the IC50 in the experiment with A375 cells was more than 5 µM.
As to `O=C(Nc1ccc(C(=O)c2ccc3ncc(N4CCNCC4)nc3c2)c(F)c1)c1cccc(F)c1` [Compound C39, 3-fluoro-N-(3-fluoro-4-(3-(piperazin-1-yl)quinoxaline-6-carbonyl)phenyl)benzamide], in the experiment on A375 cells, the IC50 lay within 1 to 5 µM.

Source of the values: patent US10047059B2, “Substituted quinoxalines for inhibiting kinase activity” (NEUPHARMA, INC., priority 2012, dated 2018).
